Structures are written as SMILES.

The nature of the first data set: in vitro. The conditions noted are these: human, hela cells.
By viability is commonly meant a read-out of living cells in per cent, often relative to untreated cells. Consider `CC1CN(C(=O)Oc2ccccc2)C(C)CN1CCCC(c1ccc(F)cc1)c1ccc(F)cc1` (centres unmarked) [CBK024993C], for which the viability at 28.5 h, 10 µM came to 87.4%.

Staying with this data set, now noted: human, hela cells, % viability.
`CC1CN(C(=O)NC2CC2)C(C)CN1CCCC(c1ccc(F)cc1)c1ccc(F)cc1` (centres unmarked) [CBK024927C]: the viability at 28.5 h, 10 µM amounted to 104%.
On to `CC(=O)N1CCN(CCCC(c2ccc(F)cc2)c2ccc(F)cc2)CC1` [CBK024944C], for which the viability at 28.5 h, 10 µM stood at 101%.
Turning to `CNC(=O)N1CCN(CCOC(c2ccc(F)cc2)c2ccc(F)cc2)CC1` [CBK024948C], the viability at 28.5 h, 10 µM worked out at 87.3%.
Take `CC(C)C(=O)N1CC(C)N(CCCC(c2ccc(F)cc2)c2ccc(F)cc2)CC1C` (centres unmarked) [CBK024961C]: the viability at 28.5 h, 10 µM was 97.6%.
Turning to `CCNC(=O)N1CCN(CCCCN2C(=O)CC3(CCCC3)CC2=O)CC1` [CBK024999C], the viability at 28.5 h, 10 µM is 102%.
The same measure, in the same setting: the same measure for `CCNC(=O)N1CCN(CCCC(O)c2ccc(F)cc2)CC1` (centres unmarked) [CBK025001C]: 118%.
As for `CCNC(=O)N1CC(C)N(CCCCc2ccc(F)cc2)C(C)C1` (centres unmarked) [CBK025027C], the viability at 28.5 h, 10 µM amounted to 89.9%.
Take `O=C(CCCN1CCN(C(=O)NC2CCC(O)CC2)CC1)c1ccc(F)cc1` (centres unmarked) [CBK025156C]: the viability at 28.5 h, 10 µM was determined as 97%.
Still for that read-out and setting: the result for `Cc1cccc(N2CCN(CCCOc3ccc(F)c(F)c3)CC2)n1` [CBK025158C] reads 106%; that for `COc1cc(C(C)=O)ccc1OCCCN1CCC(O)(C(=O)c2ccc(F)cc2)CC1` [CBK025271C], 85.8%; that for `O=C(CCCN1CCN(CCCC(=O)c2ccc(F)cc2)CC1)c1ccc(F)cc1` [CBK025317C], 89.1%.
On the same count and under the same terms, the result for `CC(C)OC(=O)c1cccnc1N1CCN(CCCC(c2ccc(F)cc2)c2ccc(F)cc2)CC1` [CBK025340C] reads 103%; that for `NC(=O)c1cccnc1N1CCN(CCCN(c2ccc(F)cc2)c2ccc(F)cc2)CC1` [CBK025341C], 110%.
Regarding `CN(C)Cc1ccc(-c2cc3occ(-c4ccccc4)c3c(=O)n2C)cc1` [CBK025372], the viability at 28.5 h, 10 µM is 103%.
Same read-out and setting: the same measure for `CCC1(O)C(C)C(c2ccc(Cl)cc2)NC(c2ccc(Cl)cc2)C1C` (centres unmarked) [CBK025376C]: 124%; for `Cc1ccccc1Cn1c(=O)sc2ccccc21` [CBK025408]: 94.9%.
On to `CSc1ccc(SC/C(N)=N/O)cc1` [CBK025411C], for which the viability at 28.5 h, 10 µM was 96.1%.
As to `C(=N\Nc1nc2ccccc2[nH]1)/c1cccs1` [CBK025417], the viability at 28.5 h, 10 µM is 87.6%.
In the case of `CCOc1ccc2c(c1)N1C(=O)NC(C(F)(F)F)(C(F)(F)F)N=C1S2` [CBK025440], the viability at 28.5 h, 10 µM is 85.4%.
Same read-out and setting: the result for `CC1(C)CC(=O)Nc2ccccc2S1` [CBK025483] reads 98.2%.
The same measure, in the same setting: the result for `O=C1Nc2ccccc2SC1(O)C(F)(F)F` (centres unmarked) [CBK025554] reads 114%; that for `O=S1(=O)C=C(N2CCCCCC2)CC1` [CBK025571C], 85.7%.
Still for that read-out and setting: the same measure for `CCOC(=O)COc1ccc2nsnc2c1Cl` [CBK025603]: 91.4%; for `O=c1[nH]c(NCCCO)nc2sc3c(c12)CCCC3` [CBK025611]: 87.9%; for `NC1=NN2C(=C(c3ccc(O)c(C(=O)O)c3)NN2c2ccccc2)N1` [CBK025631]: 95.2%.
For the compound `Cn1c(=O)n(CC#N)c2ccccc21` [CBK025636], the viability at 28.5 h, 10 µM was 96.9%.
The same measure, in the same setting: the same measure for `COc1ccc(-c2cc3nnc(C)nc3s2)cc1` [CBK025638]: 107%; for `Nn1cnn2c(SCC(=O)Nc3ccc(Cl)cc3)nnc12` [CBK025688]: 99%; for `Nc1nonc1C(=O)NCc1cccnc1` [CBK025695]: 95.9%.
As to `Cc1ccc(OC(C)c2nc(-c3nonc3N)no2)cc1C` (centres unmarked) [CBK025698], the viability at 28.5 h, 10 µM is 92.4%.
Same read-out and setting: the same measure for `Cc1cc(Cl)cc(Cl)c1OCCCc1c(C)n[nH]c1C` [CBK025733C]: 76.9%; for `Cc1n[nH]c(C)c1CCCCCOc1ccccc1F` [CBK025736C]: 88.9%.
Still for that read-out and setting: the result for `COc1cc(/C=N/Nc2nonc2N)cc(OC)c1OC` [CBK025758] reads 73.2%; that for `COc1c(I)cc(Br)cc1/C=N/NC(=O)CC#N` [CBK025764], 91.8%.
On the same count and under the same terms, the result for `Cc1cc(C)n2nc(S(N)(=O)=O)c(C#N)c2n1` [CBK025767] reads 90.7%; that for `COc1cc(CN2CCN(c3ccccn3)CC2)cc(Br)c1O` [CBK025770], 91.9%.
Regarding `COc1ccc(CNC2CCCc3ccccc32)c(OC)c1C` (centres unmarked) [CBK025778G], the viability at 28.5 h, 10 µM was 77.6%.
Consider `CSc1nc(N)c2nccnc2n1` [CBK025779], for which the viability at 28.5 h, 10 µM stood at 104%.
Consider `O=C(NC(Sc1ncccn1)C(=O)c1ccccc1)c1ccccc1` (centres unmarked) [CBK025806], for which the viability at 28.5 h, 10 µM was 95.5%.
As to `CCc1nnc(NC(=O)CSc2nc3c([nH]2)c(=O)n(C)c(=O)n3C)s1` [CBK025840], the viability at 28.5 h, 10 µM was determined as 113%.
On the same count and under the same terms, the same measure for `C[S+]([O-])CC(O)(c1ccc(F)cc1)C1CC1` (centres unmarked) [CBK025846]: 114%.
With `COc1ccc(N(CCC#N)S(=O)(=O)c2cccc3nsnc23)cc1` [CBK025851], the viability at 28.5 h, 10 µM is 90.7%.
Still for that read-out and setting: the same measure for `COc1ccc2[nH]c3c(=O)n(C)cnc3c2c1` [CBK025870]: 85.8%; for `O=C(c1cccnc1N1CCCCC1)N1CCCCC1` [CBK025882]: 109%; for `CC1(C)SC(c2ccc(F)cc2)N[C@H]1C(=O)O` (some centres unmarked) [CBK025917]: 91.4%.
Same read-out and setting: the same measure for `Nc1nc(N)c2cc(C(F)(F)F)ccc2n1` [CBK025934]: 66.4%; for `Nc1nc(N)c2cccc(F)c2n1` [CBK025945]: 91.4%.
Still for that read-out and setting: the result for `COc1ccc2c(-n3cncn3)ccnc2c1` [CBK025957] reads 90.2%.
As to `Cc1cc(C)c2nc(-n3cncn3)c(C)cc2c1` [CBK025958], the viability at 28.5 h, 10 µM is 88.9%.
In the case of `Clc1ccc(CNC2CCCCC2NCc2ccc(Cl)nc2)cn1` (centres unmarked) [CBK025983], the viability at 28.5 h, 10 µM is 82.7%.
For `CCCn1nnn(-c2cc(OCCOCC)c(Cl)cc2Cl)c1=O` [CBK026016], the viability at 28.5 h, 10 µM was 99%.
As to `O=C(O)COc1ccc(Br)cn1` [CBK026021], the viability at 28.5 h, 10 µM came out at 104%.
In the case of `CC1NCCc2c1sc1ccccc21` (centres unmarked) [CBK026032C], the viability at 28.5 h, 10 µM amounted to 100%.
In the case of `COC(=O)c1sc(NC(=O)C2CC2)c(C#N)c1C` [CBK026049], the viability at 28.5 h, 10 µM was found to be 107%.
Take `O=C(C1CCC1)N1CCN(c2ccccn2)CC1` [CBK026058]: the viability at 28.5 h, 10 µM worked out at 107%.
In the case of `O=C(Nc1nnc[nH]1)c1cccnc1Cl` [CBK026067], the viability at 28.5 h, 10 µM is 113%.
Same read-out and setting: the result for `COC(=O)Cn1c(=O)sc2cccc(Cl)c21` [CBK026076] reads 93.9%; that for `OC(COc1ccccc1)Cn1ncnn1` (centres unmarked) [CBK026083], 89.6%; that for `COc1ccc(CCCC(=O)NC2CCCCC2C)cc1` (centres unmarked) [CBK026124], 94.3%.

The data set is the same for the next values; noted with them: human, hela cells, % viability, bulk resorufin, single well.
With `Cc1cn(-c2ccc(OC(=O)NC(C)(C)C)c(Cl)c2)c(=O)n1C` [CBK025991], the viability at 28.5 h, 10 µM was determined as 106%.
Same read-out and setting: the same measure for `CNCCc1csc2ccc(C)cc12` [CBK026097]: 91.6%.

These data come from publication PMC12040169 (PLOS Biology, 2025).
